Test results taken from patent US10610507B2, “Methods for the treatment of sialorrhea” (NeuRX Pharmaceuticals LLC, priority 2012, dated 2020).

How the values were obtained:
[1] = Human liver microsome incubation study (metabolic stability)
[2] = cited from earlier work
in vitro = details: human, liver microsomes
[3] = human liver microsome incubation

Row | Structure (SMILES) | stability to metabolism by human liver microsomes relative to oxybutynin ([1]; compared with oxybutynin) | Clint [1, 3] | Half Life [1, 3] | absolute bioavailability ([2]; administered orally) | oral bioavailability ([2]; after oral administration, pre-systemic metabolism) | inter individual variation in maximal oxybutynin plasma concentration (Cmax) ([2]; after oral administration) | inter individual variation in oxybutynin AUC ([2]; after oral administration) | increase of oxybutynin plasma levels ([2]; co-administered with ketoconazole vs without ketoconazole) | half-life (in vitro) | microsomal CLint (in vitro)
1 | CCNCC#CCOC(=O)C(O)(c1ccccc1)C1CCCCC1 (stereo not shown) [N-desethyloxybutynin, 4-(ethylamino) but-2-ynyl2-cyclohexyl-2-hydroxy-2-phenylacetate] | 10 times | 0.0218 ml/min/mg protein | >60 (63.6) mins |  |  |  |  |  |  | 
2 | CCN(CC)CC#CCOC(=O)C(O)(c1ccccc1)C1CCCCC1 (racemic) [Oxybutynin] |  |  |  | about 6% | approximately 6.2% | 8 fold | 13 fold | 3-4 fold | 5.2 min | 267 µL/min/mg
